Columns and labels:
BCLXL [1] = biological target: T1, BCLXL (Homo sapiens, UniProt Q07817, V10N/V9A); assay: AlphaLISA assay (BIM peptide displacement); format: binding; details: 20 pM protein, 1 nM peptide
Procedure: AlphaLISA assay measures an increase in alpha signal upon binding biotinylated GST(1-218)-(FACTOR_XA)-hs ? (2-209)(SEQ ID:02—GST UniProtKB® primary accession number P08515 and BCLXL UniProtKB® primary accession number Q07817-1) coupled to a Streptavidin labeled Alpha donor bead to N-terminally labeled peptide derived from BIM (Fluorescein-betaAla-Ahx-SEQID:05, wherein SEQ ID:05 is […]) coupled to an Anti-FTIC AlphaLISA acceptor bead.
GST(1-218)(FACTOR_XA)-hs ? (2-209) was biotinylated in 50 mM phosphate buffer using a 20 fold excess of EZ Link NHS-LC-Biotin (thermoFisher catalogue number 21336) overnight at 4° C.
The addition of a compound which binds competitively to the same site as the peptide will result in an decrease in the Alpha signal of the available donor bead-protein-peptide-acceptor bead complex due to displacement of the peptide.
An 11-point serial dilution of each compound was prepared in DMSO, the final buffer conditions were 10 mM 4-(2-hydroxyethyl)-1-piperazineethanesulfonic acid [HEPES], 150 mM NaCl, 0.05% Tween 20, pH 7.4 and 4% DMSO. The final protein concentration in the assay was 20 pM with the peptide present at 1 nM). Alpha beads were used at a final concentration of 5 ug/mL. The experiments were incubated for overnight at 23° C. after acceptor bead addition. Finally the donor bead is added and incubated for 2 hours at 23° C. before Alpha signal measured on a Biotek Synergy2 plate reader (Excitation 680 nm, emission 615 nm).

H146 cells = assay: H146 cell viability, MTT assay; format: cell-based; details: Homo sapiens, NCI-H146, 48 h, 48 h exposure
How it was run: (§1)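 Cells grown in RPMI 1640 with 10% heat-inactivated FBS at 37° C, 5% CO2, exposed 48 h to nine 3.16-fold serial compound dilutions in triplicate. MTT added for 4 h, SDS/HCl solubilisation overnight, absorbance at 540 nm; IC50 by four-parameter fit.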

MOLT-4 cells = assay: MOLT-4 cell viability, MTT assay; format: cell-based; details: Homo sapiens, MOLT-4, 48 h, 48 h exposure
How it was run: as §1

BCLXL [2] = biological target: T1, BCLXL; assay: Fluorescence polarisation assay (PUMA-based probe displacement); format: binding; further: 20 nM protein, 10 nM fluorescent probe

T1 sequence (Q07817 with tags, fused parts or gaps V9A/V10N): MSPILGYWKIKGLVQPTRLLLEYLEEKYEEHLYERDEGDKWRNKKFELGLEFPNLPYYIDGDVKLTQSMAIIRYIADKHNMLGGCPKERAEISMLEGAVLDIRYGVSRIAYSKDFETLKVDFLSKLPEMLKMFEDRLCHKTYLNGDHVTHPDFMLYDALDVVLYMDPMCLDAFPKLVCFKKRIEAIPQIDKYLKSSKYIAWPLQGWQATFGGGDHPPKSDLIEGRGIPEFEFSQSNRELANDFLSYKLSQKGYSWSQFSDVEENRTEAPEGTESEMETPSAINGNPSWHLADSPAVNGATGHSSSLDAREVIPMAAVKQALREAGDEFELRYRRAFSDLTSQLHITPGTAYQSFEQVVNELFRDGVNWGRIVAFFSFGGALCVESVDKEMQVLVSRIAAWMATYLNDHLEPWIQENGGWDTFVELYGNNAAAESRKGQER

IC50 (BCLXL [1]) [nM]	IC50 (H146 cells) [nM]	IC50 (MOLT-4 cells) [nM]	Ki (BCLXL [2]) [nM]	SMILES
0.0054	201	108	< 1	Cc1cc(N(CCCCO)c2nc(C(=O)O)c(CCCOc3ccc(C#CC[N+](C)(C)CCCS(=O)(=O)[O-])cc3F)s2)nnc1Nc1nc2ccccc2s1 [Example 130, 3-[3-[4-[3-[2-[[6-(1,3-Benzothiazol-2-ylamino)-5-methyl-pyridazin-3-yl]-(4-hydroxybutyl)amino]-4-carboxy-thiazol-5-yl]propoxy]-3-fluoro-phenyl]prop-2-ynyl-dimethyl-ammonio]propane-1-sulfonate]
0.006	21.4	97.4	< 1	CNCC#Cc1ccc(OCCCc2sc(N(CCCC(O)CO)c3cc(C)c(Nc4nc5ccccc5s4)nn3)nc2C(=O)O)c(F)c1 (stereo not drawn) [Example 119, 2-[[6-(1,3-Benzothiazol-2-ylamino)-5-methyl-pyridazin-3-yl]-(4,5-dihydroxypentyl)amino]-5-[3-[2-fluoro-4-[3-(methylamino)prop-1-ynyl]phenoxy]propyl]thiazole-4-carboxylic acid]
0.024	142	23.4	< 1	Cc1cc(N(C)c2nc(C(=O)O)c(CC3(COc4ccc(C#CCN(C)C)cc4F)CC3)s2)nnc1Nc1nc2ccccc2s1 [Example 140, 2-({6-[(1,3-Benzothiazol-2-yl)amino]-5-methylpyridazin-3-yl}(methyl)amino)-5-{[1-({4-[3-(dimethylamino)prop-1-yn-1-yl]-2-fluorophenoxy}methyl)cyclopropyl]methyl}-1,3-thiazole-4-carboxylic acid]
51	4070	≥ 10000	67	Cc1cc(N(C)c2nc(C(=O)O)c(C3CCN(S(C)(=O)=O)CC3)s2)nnc1Nc1nc2ccccc2s1 [Example 94, 2-({6-[(1,3-Benzothiazol-2-yl)amino]-5-methylpyridazin-3-yl}(methyl)amino)-5-(1-methanesulfonylpiperidin-4-yl)-1,3-thiazole-4-carboxylic acid]
0.96	5800	2740	1.5	COCCCc1sc(N(C)c2cc(C)c(Nc3nc4ccccc4s3)nn2)nc1C(=O)O [Example 60, 2-({6-[(1,3-Benzothiazol-2-yl)amino]-5-methylpyridazin-3-yl}(methyl)amino)-5-(3-methoxypropyl)-1,3-thiazole-4-carboxylic acid]
0.0066	22.3	46.7	< 1	CNCC#Cc1ccc(OCCCc2sc(N(CCC(O)CO)c3cc(C)c(Nc4nc5ccccc5s4)nn3)nc2C(=O)O)c(F)c1 (stereo not drawn) [Example 108, 2-[[6-(1,3-Benzothiazol-2-ylamino)-5-methyl-pyridazin-3-yl]-(3,4-dihydroxybutyl)amino]-5-[3-[2-fluoro-4-[3-(methylamino)prop-1-ynyl]phenoxy]propyl]thiazole-4-carboxylic acid]
210			130	CC(=O)N1CCC(c2sc(N(C)c3cc(C)c(Nc4nc5ccccc5s4)nn3)nc2C(=O)O)CC1 [Example 97, 5-(1-Acetylpiperidin-4-yl)-2-({6-[(1,3-benzothiazol-2-yl)amino]-5-methylpyridazin-3-yl}(methyl)amino)-1,3-thiazole-4-carboxylic acid]
10			50	Cc1cc(N(CCCC(O)CN(C)CCN(C)C)c2nc(C(=O)O)cs2)nnc1Nc1nc2ccccc2s1 (stereo not drawn) [Example 142, 2-[[6-(1,3-Benzothiazol-2-ylamino)-5-methyl-pyridazin-3-yl]-[5-[2-(dimethylamino)ethyl-methyl-amino]-4-hydroxy-pentyl]amino]thiazole-4-carboxylic acid]
270			220	Cc1cc(N(C)c2nc(C(=O)O)c(C3CCN(C(=O)Cc4ccccc4)CC3)s2)nnc1Nc1nc2ccccc2s1 [Example 96, 2-({6-[(1,3-Benzothiazol-2-yl)amino]-5-methylpyridazin-3-yl}(methyl)amino)-5-[1-(2-phenylacetyl)piperidin-4-yl]-1,3-thiazole-4-carboxylic acid]
0.27	320	61.4		Cc1cc(N(C)c2nc(C(=O)O)c(CC(C)(C)COc3ccc(C#CCN(C)C)cc3F)s2)nnc1Nc1nc2ccccc2s1 [Example 137, 2-({6-[(1,3-Benzothiazol-2-yl)amino]-5-methylpyridazin-3-yl}(methyl)amino)-5-(3-{4-[3-(dimethylamino)prop-1-yn-1-yl]-2-fluorophenoxy}-2,2-dimethylpropyl)-1,3-thiazole-4-carboxylic acid]
0.005		194	< 1	Cc1cc(N(CCCCO)c2nc(C(=O)O)c(CCCOc3ccc(C#CCN(C)CCCS(=O)(=O)O)cc3F)s2)nnc1Nc1nc2ccccc2s1 [Example 151, 2-[[6-(1,3-Benzothiazol-2-ylamino)-5-methyl-pyridazin-3-yl]-(4-hydroxybutyl)amino]-5-[3-[2-fluoro-4-[3-[methyl(3-sulfopropyl)amino]prop-1-ynyl]phenoxy]propyl]thiazole-4-carboxylic acid]
0.099	280	557		Cc1ccc(S(=O)(=O)N(C)CC#Cc2ccc(OCCCc3sc(N(CCC(O)CO)c4cc(C)c(Nc5nc6ccccc6s5)nn4)nc3C(=O)O)c(F)c2)cc1 (stereo not drawn) [Example 120, 2-[[6-(1,3-Benzothiazol-2-ylamino)-5-methyl-pyridazin-3-yl]-(3,4-dihydroxybutyl)amino]-5-[3-[2-fluoro-4-[3-[methyl(p-tolylsulfonyl)amino]prop-1-ynyl]phenoxy]propyl]thiazole-4-carboxylic acid]
0.089	> 150	> 150		CNCC#Cc1ccc(OCCCc2sc(N(CC(CO)N3CCOCC3)c3cc(C)c(Nc4nc5ccccc5s4)nn3)nc2C(=O)O)c(F)c1 (stereo not drawn) [Example 115, 2-[[6-(1,3-Benzothiazol-2-ylamino)-5-methyl-pyridazin-3-yl]-(3-hydroxy-2-morpholino-propyl)amino]-5-[3-[2-fluoro-4-[3-(methylamino)prop-1-ynyl]phenoxy]propyl]thiazole-4-carboxylic acid]
0.028	13	25.7		CNCC#Cc1ccc(OCCCc2sc(N(CCCC(O)CN3CCOCC3)c3cc(C)c(Nc4nc5ccccc5s4)nn3)nc2C(=O)O)c(F)c1 (stereo not drawn) [Example 113, 2-[[6-(1,3-Benzothiazol-2-ylamino)-5-methyl-pyridazin-3-yl]-(4-hydroxy-5-morpholino-pentyl)amino]-5-[3-[2-fluoro-4-[3-(methylamino)prop-1-ynyl]phenoxy]propyl]thiazole-4-carboxylic acid]
0.028	30.9	77.5		CNCC#Cc1ccc(OCCCc2sc(N(CCCC(CO)OC)c3cc(C)c(Nc4nc5ccccc5s4)nn3)nc2C(=O)O)c(F)c1 (stereo not drawn) [Example 112, 2-[[6-(1,3-Benzothiazol-2-ylamino)-5-methyl-pyridazin-3-yl]-(5-hydroxy-4-methoxy-pentyl)amino]-5-[3-[2-fluoro-4-[3-(methylamino)prop-1-ynyl]phenoxy]propyl]thiazole-4-carboxylic acid]
11			29	Cc1cc(N(C)c2nc(C(=O)O)c(C3CN(C(=O)Cc4ccccc4)C3)s2)nnc1Nc1nc2ccccc2s1 [Example 138, 2-({6-[(1,3-Benzothiazol-2-yl)amino]-5-methylpyridazin-3-yl}(methyl)amino)-5-[1-(2-phenylacetyl)azetidin-3-yl]-1,3-thiazole-4-carboxylic acid]
270			640	Cc1cc(N(C)c2nc(C(=O)O)c(C3CNC3)s2)nnc1Nc1nc2ccccc2s1 [Example 139, 5-(Azetidin-3-yl)-2-({6-[(1,3-benzothiazol-2-yl)amino]-5-methylpyridazin-3-yl}(methyl)amino)-1,3-thiazole-4-carboxylic acid]
190			180	Cc1cc(N(C)c2nc(C(=O)O)c(C3CN(Cc4ccccc4)C3)s2)nnc1Nc1nc2ccccc2s1 [Example 145, 2-({6-[(1,3-Benzothiazol-2-yl)amino]-5-methylpyridazin-3-yl}(methyl)amino)-5-(1-benzylazetidin-3-yl)-1,3-thiazole-4-carboxylic acid]
1.9	6590	3170		C/C(=C\c1sc(N(C)c2cc(C)c(Nc3nc4ccccc4s3)nn2)nc1C(=O)O)COc1ccccc1 [Example 162, 2-({6-[(1,3-Benzothiazol-2-yl)amino]-5-methylpyridazin-3-yl}(methyl)amino)-5-[(1E)-2-methyl-3-phenoxyprop-1-en-1-yl]-1,3-thiazole-4-carboxylic acid]
